Test results taken from US20150105252A1, “SUBSTITUTED PYRAZOLES AS HERBICIDES” (E I DU PONT DE NEMOURS AND COMPANY, priority 2013, published 2015).

Experiments:
cupgrass, woolly = test: Test C postemergence; format: in vivo, Eriochloa villosa; conditions: for Cupgrass, Woolly plant response rating: scale 0 to 100
From the text: (§1) Seeds of plant species selected from blackgrass (Alopecurus myosuroides), ryegrass, Italian (Italian ryegrass, Lolium multiflorum), wheat (winter wheat, Triticum aestivum), galium (catchweed bedstraw, Galium aparine), corn (Zea mays), crabgrass, large (large crabgrass, Digitaria sanguinalis), foxtail, giant (giant foxtail, Setaria faberii), johnsongrass (Sorghum halepense), lambsquarters (Chenopodium album), morningglory (Ipomoea coccinea), nutsedge, yellow (yellow nutsedge, Cyperus esculentus), pigweed (redroot pigweed, Amaranthus retroflexus), ragweed (common ragweed, Ambrosia elation), soybean (Glycine max), barnyardgrass (Echinochloa crus-galli), oilseed rape (Brassica napus), waterhemp (common waterhemp, Amaranthus rudis), oat, wild (wild oat, Avena fatua), kochia (Kochia scoparia), Surinam grass (Brachiaria decumbens), foxtail, green (green foxtail, Setaria viridis), goosegrass (Eleusine indica), bromegrass, downy (downy bromegrass, Bromus tectorum), nightshade (eastern black nightshade, Solanum ptycanthum), cocklebur (common cocklebur, Xanthium strumarium), cupgrass, woolly (woolly cupgrass, Eriochloa villosa), bermudagrass (Cynodon dactylon), sunflower, (common oilseed sunflower, Helianthus annuus), Russian thistle (Salsola kali), and velvetleaf (Abutilon theophrasti) were planted into a blend of loam soil and sand and treated preemergence with test chemicals formulated in a non-phytotoxic solvent mixture which included a surfactant.
(§2) At the same time, plants selected from these crop and weed species and also chickweed (common chickweed, Stellaria media), canarygrass (littleseed canarygrass, Phalaris minor), and deadnettle (henbit deadnettle, Lamium amplexicaule), were planted in pots containing Redi-Earth® planting medium (Scotts Company, 14111 Scottslawn Road, Marysville, Ohio 43041) comprising spaghnum peat moss, vermiculite, wetting agent and starter nutrients and treated with postemergence applications of test chemicals formulated in the same manner. Plants ranged in height from 2 to 18 cm (1- to 4-leaf stage) for postemergence treatments. Treated plants and controls were maintained in a greenhouse for 13 to 15 days, after which time all species were compared to controls and visually evaluated. Plant response ratings, summarized in Table C, are based on a scale of 0 to 100 where 0 is no effect and 100 is complete control. A dash (-) response means no test result.

bermudagrass = test: Test C postemergence; format: in vivo, Cynodon dactylon; conditions: for Bermudagrass plant response rating: scale 0 to 100
From the text: as §1, §2

barley = test: Test C postemergence; format: in vivo, Hordeum vulgare; conditions: scale 0 to 100, 0 no effect, 100 complete control
goosegrass = test: Test C preemergence; format: in vivo, Eleusine indica; conditions: for Plant response rating (scale of 0 to 100), Goosegrass: Preemergence, 250 g ai/ha; for Goosegrass plant response rating / Plant response rating, Goosegrass: preemergence; for Plant response rating, Goosegrass: 62 g ai/ha, scale 0 to 100, 0 = no effect, 100 = complete control
From the text: as §1, §2

crabgrass, Brazil = test: Test F preemergence; format: in vivo, Digitaria horizontalis
From the text: (§3) Seeds of plant species selected from corn (Zea mays), soybean (Glycine max), velvetleaf (Abutilon theophrasti), lambsquarters (Chenopodium album), wild poinsettia (Euphorbia heterophylla), pigweed, palmer (palmer pigweed, Amaranthus palmeri), common waterhemp (Amaranthus rudis), surinam grass (Brachiaria decumbens), large crabgrass (Digitaria sanguinalis), crabgrass, Brazil (Brazilian crabgrass, Digitaria horizontalis), fall panicum (Panicum dichotomiflorum), giant foxtail (Setaria faberii), green foxtail (Setaria viridis), goosegrass (Eleusine indica), johnsongrass (Sorghum halepense), common ragweed (Ambrosia elation), barnyardgrass (Echinochloa crus-galli), southern sandbur (Cenchrus echinatus), arrowleaf sida (Sida rhombifolia), Italian ryegrass (Lolium multiflorum), dayflower, VA (Virginia (VA) dayflower, Commelina virginica), field bindweed (Convolvulus arvensis), cocklebur (common cocklebur, Xanthium strumarium), morningglory (Ipomoea coccinea), nightshade (eastern black nightshade, Solanum ptycanthum), kochia (Kochia scoparia), yellow nutsedge (Cyperus esculentus), and hairy beggarticks (Bidens pilosa), were planted into a silt loam soil and treated preemergence with test chemicals formulated in a non-phytotoxic solvent mixture which included a surfactant.
(§4) At the same time, plants from these crop and weed species and also horseweed (Canada horseweed, Conyza canadensis), smartweed (ladysthumb smartweed, Polygonum persicaria), waterhemp_RES1, (ALS & Triazine resistant common waterhemp, Amaranthus rudis), and waterhemp_RES2, (ALS & HPPD resistant common waterhemp, Amaranthus rudis) were treated with postemergence applications of test chemicals formulated in the same manner. Plants ranged in height from 2 to 18 cm for postemergence treatments (1- to 4-leaf stage). Treated plants and controls were maintained in a greenhouse for 14 to 21 days, after which time all species were compared to controls and visually evaluated. Plant response ratings, summarized in Table F, are based on a scale of 0 to 100 where 0 is no effect and 100 is complete control. A dash (-) response means no test result.

morningglory = test: Test F preemergence; format: in vivo, Ipomoea coccinea
From the text: as §3, §4

hairy beggarticks = test: Test F preemergence; format: in vivo, Bidens pilosa
From the text: as §3, §4

common ragweed [1] = test: Test A postemergence; format: in vivo, Ambrosia elation
How it was run: (§5)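 After sowing in a sand–loam mix, pots received compound preemergence by directed soil spray, or postemergence once plants reached the one- to two-leaf stage (2–10 cm). Formulation contained surfactant in a non-phytotoxic solvent. Injury was scored visually after ~10 greenhouse days, 0–100 scale.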

common ragweed [2] = test: Test A preemergence; format: in vivo, Ambrosia elation
How it was run: as §5

[3] = postemergence, 250 g ai/ha, scale 0 to 100 (0 no effect, 100 complete control)
[4] = postemergence, 62 g ai/ha, scale 0 to 100, 0 no effect, 100 complete control
[5] = postemergence, 125 g ai/ha, scale 0 to 100, 0 no effect, 100 complete control
[6] = 31 g ai/ha, scale 0 to 100 (0 no effect, 100 complete control), 13 to 15 days
[7] = 125 g ai/ha, scale 0 to 100, 0 is no effect, 100 is complete control
[8] = Preemergence, 31 g ai/ha, scale 0 to 100
[9] = Preemergence, 62 g ai/ha, scale 0 to 100
[10] = Preemergence, 125 g ai/ha, scale 0 to 100
[11] = preemergence, 8 g ai/ha, scale 0 to 100, 100 is complete control
[12] = preemergence, 16 g ai/ha, scale 0 to 100, 100 is complete control
[13] = Postemergence, 500 g ai/ha, 0 to 100 scale (0 no effect, 100 complete control)
[14] = postemergence, 125 g ai/ha, about 10 days, visual rating on 0 to 100 scale (0 no effect, 100 complete control)
[15] = 125 g ai/ha, visual injury, 0 to 100 scale, approx. 10 days
[16] = 500 g ai/ha, visual injury after approx. 10 days, 0 to 100 scale (0 no effect, 100 complete control)
[17] = Preemergence, 16 g ai/ha, scale 0 to 100
[18] = Preemergence, 250 g ai/ha, scale 0 to 100

CCc1cc(C(=O)NCC(F)(F)F)nn1Cc1cccc(OC(F)(F)F)c1 [Compound 20]
Cupgrass, Woolly plant response rating (cupgrass, woolly; Postemergence, 31 g ai/ha): 5 | Plant response rating, Cupgrass, Woolly (cupgrass, woolly; [3]): 15 | Plant response rating, Cupgrass, Woolly (cupgrass, woolly; [4]): 10 | Plant response rating, Cupgrass, Woolly (cupgrass, woolly; [5]): 15 | Bermudagrass plant response rating (bermudagrass; Postemergence, 31 g ai/ha): 5 | Plant response rating, Bermudagrass (bermudagrass; [3]): 45 | Plant response rating, Bermudagrass (bermudagrass; [4]): 5 | Plant response rating, Bermudagrass (bermudagrass; [5]): 15 | Plant response rating, Barley (barley; 62 g ai/ha): 20

CCCNC(=O)c1cc(CC)n(Cc2cccc(OC(F)(F)F)c2)n1 [Compound 27]
Cupgrass, Woolly plant response rating (cupgrass, woolly; Postemergence, 31 g ai/ha): 0 | Plant response rating, Cupgrass, Woolly (cupgrass, woolly; [3]): 20 | Plant response rating, Cupgrass, Woolly (cupgrass, woolly; [4]): 5 | Plant response rating, Cupgrass, Woolly (cupgrass, woolly; [5]): 10 | Bermudagrass plant response rating (bermudagrass; Postemergence, 31 g ai/ha): 0 | Plant response rating, Bermudagrass (bermudagrass; [3]): 25 | Plant response rating, Bermudagrass (bermudagrass; [4]): 5 | Plant response rating, Bermudagrass (bermudagrass; [5]): 5 | Plant response rating, Barley (barley; 62 g ai/ha): 20

CCc1cc(C(=O)NOC(C)C)nn1Cc1cccc(OC(F)(F)F)c1 [Compound 70]
Cupgrass, Woolly plant response rating (cupgrass, woolly; Postemergence, 31 g ai/ha): 0 | Plant response rating, Cupgrass, Woolly (cupgrass, woolly; [3]): 20 | Plant response rating, Cupgrass, Woolly (cupgrass, woolly; [4]): 0 | Plant response rating, Cupgrass, Woolly (cupgrass, woolly; [5]): 15 | Bermudagrass plant response rating (bermudagrass; Postemergence, 31 g ai/ha): 5 | Plant response rating, Bermudagrass (bermudagrass; [3]): 10 | Plant response rating, Bermudagrass (bermudagrass; [4]): 5 | Plant response rating, Bermudagrass (bermudagrass; [5]): 10 | Plant response rating (scale of 0 to 100), Goosegrass (goosegrass): 98 | Goosegrass plant response rating (goosegrass; [6]): 60 | Plant response rating, Goosegrass (goosegrass; 13 to 15 days): 80 | Goosegrass plant response rating (goosegrass; [7]): 95 | Plant response rating, Barley (barley; 62 g ai/ha): 5 | Plant response rating, Barley (barley; 125 g ai/ha): 10

CCONC(=O)c1cc(CC)n(Cc2cccc(OC(F)(F)F)c2)n1 [Compound 72]
Cupgrass, Woolly plant response rating (cupgrass, woolly; Postemergence, 31 g ai/ha): 5 | Cupgrass, Woolly plant response rating (cupgrass, woolly; postemergence, 62 g ai/ha): 10 | Plant response rating, Cupgrass, Woolly (cupgrass, woolly; [3]): 15 | Plant response rating, Cupgrass, Woolly (cupgrass, woolly; [5]): 10 | Bermudagrass plant response rating (bermudagrass; Postemergence, 31 g ai/ha): 0 | Bermudagrass plant response rating (bermudagrass; postemergence, 62 g ai/ha): 0 | Plant response rating, Bermudagrass (bermudagrass; [3]): 20 | Plant response rating, Bermudagrass (bermudagrass; [5]): 15 | Plant response rating (scale of 0 to 100), Goosegrass (goosegrass): 98 | Goosegrass plant response rating (goosegrass; [6]): 75 | Plant response rating, Goosegrass (goosegrass; 13 to 15 days): 98 | Goosegrass plant response rating (goosegrass; [7]): 98 | Plant response rating, Barley (barley; 125 g ai/ha): 5

CCc1cc(-c2ccc(C(F)(F)F)cc2)nn1Cc1ccnc(C(F)(F)F)c1 [Compound 110]
Plant response rating, Crabgrass, Brazil (crabgrass, Brazil; [8]): 100 | Plant response rating, Crabgrass, Brazil (crabgrass, Brazil; [9]): 100 | Plant response rating, Crabgrass, Brazil (crabgrass, Brazil; [10]): 100 | Plant response rating, Crabgrass, Brazil (crabgrass, Brazil; [11]): 50 | Plant response rating, Crabgrass, Brazil (crabgrass, Brazil; [12]): 70 | Plant response rating, Morningglory (morningglory; [8]): 10 | Plant response rating, Morningglory (morningglory; [9]): 10 | Plant response rating, Morningglory (morningglory; [10]): 60 | Plant response rating, Morningglory (morningglory; [11]): 0 | Plant response rating, Morningglory (morningglory; [12]): 20 | Plant response rating, Hairy Beggarticks (hairy beggarticks; [8]): 35 | Plant response rating, Hairy Beggarticks (hairy beggarticks; [9]): 30 | Plant response rating, Hairy Beggarticks (hairy beggarticks; [10]): 50 | Plant response rating, Hairy Beggarticks (hairy beggarticks; [11]): 50 | Plant response rating, Hairy Beggarticks (hairy beggarticks; [12]): 35

CCc1cc(C(=O)NOC(C)C)nn1Cc1ccnc(OC(F)F)c1 [Compound 126]
Common Ragweed plant response rating (common ragweed [1]; [13]): 80 | Common Ragweed plant response rating (common ragweed [1]; [14]): 80 | Common Ragweed plant response rating (common ragweed [2]; [15]): 90 | Common Ragweed plant response rating (common ragweed [2]; [16]): 100

CCCc1cc(C(=O)NCC(F)(F)F)nn1Cc1ccnc(OC(F)F)c1 [Compound 127]
Common Ragweed plant response rating (common ragweed [1]; [13]): 80 | Common Ragweed plant response rating (common ragweed [1]; [14]): 30 | Common Ragweed plant response rating (common ragweed [2]; [15]): 30 | Common Ragweed plant response rating (common ragweed [2]; [16]): 90

CCOc1cc(C(=O)NCC(F)(F)F)nn1Cc1ccnc(OC(F)F)c1 [Compound 128]
Common Ragweed plant response rating (common ragweed [1]; [13]): 70 | Common Ragweed plant response rating (common ragweed [1]; [14]): 30 | Common Ragweed plant response rating (common ragweed [2]; [15]): 70 | Common Ragweed plant response rating (common ragweed [2]; [16]): 90

CCCNC(=O)c1cc(OCC)n(Cc2ccnc(OC(F)F)c2)n1 [Compound 136]
Common Ragweed plant response rating (common ragweed [1]; [13]): 100 | Common Ragweed plant response rating (common ragweed [1]; [14]): 30 | Common Ragweed plant response rating (common ragweed [2]; [15]): 70 | Common Ragweed plant response rating (common ragweed [2]; [16]): 80

CCCc1cc(C(=O)NC(C)C)nn1Cc1cc(C(F)(F)F)nn1C [Compound 201]
Plant response rating, Crabgrass, Brazil (crabgrass, Brazil; [17]): 75 | Plant response rating, Crabgrass, Brazil (crabgrass, Brazil; [9]): 95 | Plant response rating, Crabgrass, Brazil (crabgrass, Brazil; [10]): 100 | Plant response rating, Crabgrass, Brazil (crabgrass, Brazil; [18]): 100 | Plant response rating, Crabgrass, Brazil (crabgrass, Brazil; [12]): 0 | Plant response rating, Morningglory (morningglory; [17]): 0 | Plant response rating, Morningglory (morningglory; [9]): 25 | Plant response rating, Morningglory (morningglory; [10]): 65 | Plant response rating, Morningglory (morningglory; [18]): 80 | Plant response rating, Morningglory (morningglory; [12]): 0 | Plant response rating, Hairy Beggarticks (hairy beggarticks; [9]): 20 | Plant response rating, Hairy Beggarticks (hairy beggarticks; [10]): 35 | Plant response rating, Hairy Beggarticks (hairy beggarticks; [18]): 40 | Plant response rating, Hairy Beggarticks (hairy beggarticks; [12]): 0

CCCc1cc(C(=O)NC2CC2)nn1Cc1ccnc(OC(F)F)c1 [Compound 205]
Common Ragweed plant response rating (common ragweed [1]; [13]): 90 | Common Ragweed plant response rating (common ragweed [1]; [14]): 80 | Common Ragweed plant response rating (0 to 100 scale) (common ragweed [2]; 125 g ai/ha, visual injury approx. 10 days after treatment): 70 | Common Ragweed plant response rating (common ragweed [2]; [16]): 100

CCc1cc(C(=O)NCC(F)(F)F)nn1Cc1ccnc(Br)c1 [Compound 224]
Plant response rating, Crabgrass, Brazil (crabgrass, Brazil; [9]): 98 | Plant response rating, Crabgrass, Brazil (crabgrass, Brazil; [10]): 100 | Plant response rating, Crabgrass, Brazil (crabgrass, Brazil; [18]): 100 | Plant response rating, Morningglory (morningglory; [9]): 0 | Plant response rating, Morningglory (morningglory; [10]): 0 | Plant response rating, Morningglory (morningglory; [18]): 25 | Plant response rating, Hairy Beggarticks (hairy beggarticks; [9]): 0 | Plant response rating, Hairy Beggarticks (hairy beggarticks; [10]): 0 | Plant response rating, Hairy Beggarticks (hairy beggarticks; [18]): 10
